This passage reports IC50 results from US20250304537A1 (Repare Therapeutics Inc., priority 2022, published 2025).

Molecules are shown by their SMILES.

The first test concerns PKMYT1 (CDK1 pThr14) in FUOV1 cells. Kind of test: PKMYT1 cell-based activity assay, CDK1 pThr14 AlphaLISA in FUOV1 cells. The settings on record: 2 h, 2 h compound incubation, read-out: FUOV-1 CDK1 pThr14 IC50. The gist of the method:
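IC50 was derived from AlphaLISA signal (excitation 680 nm, emission 615 nm) for phospho-Thr14 CDK1 in lysates. The detection antibodies were rabbit anti-pThr14 and mouse anti-total CDK1, each at 5 nM. FUOV1 ovarian cells were exposed to compound for 2 hours before lysis.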
As usually defined, the IC50 is the midpoint of a concentration-inhibition curve. As to `Cc1ccc2[nH]ncc2c1-c1nc(-c2cccnc2Nc2nccnc2C)nc(C(N)=O)c1N` [Compound 728], the half-maximal inhibitory concentration (IC50) stood at 56 nM. The same measure, in the same setting: as for `Cc1ccc2[nH]ncc2c1-c1nc(-c2cccnc2Nc2ncccc2C2CC2)nc(C(N)=O)c1N` [Compound 729], the figure is 57 nM; as for `CCc1cccnc1Nc1ncccc1-c1nc(C(N)=O)c(N)c(-c2c(C)ccc3[nH]ncc23)n1` [Compound 730], 19 nM; as for `Cc1ccc2[nH]ncc2c1-c1nc(-c2cc(F)cnc2NC2CCC(F)(F)CC2)nc(C(N)=O)c1N` [Compound 731], 773 nM. The same measure, in the same setting: next, `Cc1ccc2[nH]ncc2c1-c1nc(-c2cc(F)cnc2NC2CC(C)(C)C2)nc(C(N)=O)c1N` [Compound 732]: 534 nM; `Cc1ccc2[nH]ncc2c1-c1nc(-c2cc(F)cnc2N[C@H]2C[C@@](C)(O)C2)nc(C(N)=O)c1N` [Compound 733, 5-amino-2-(5-fluoro-2-(((1s,3s)-3-hydroxy-3-methylcyclobutyl)amino)pyridin-3-yl)-6-(5-methyl-1H-indazol-4-yl)pyrimidine-4-carboxamide]: 48 nM. Still for that read-out and setting: next, `Cc1cccnc1Nc1nc(Cl)ccc1-c1nc(C(N)=O)c(N)c(-c2c(C)ccc3[nH]ncc23)n1` [Compound 736, 5-amino-2-(6-chloro-2-((3-methylpyridin-2-yl)amino)pyridin-3-yl)-6-(5-methyl-1H-indazol-4-yl)pyrimidine-4-carboxamide]: 6 nM; `Cc1cccnc1Nc1nc(C#N)ccc1-c1nc(C(N)=O)c(N)c(-c2c(C)ccc3[nH]ncc23)n1` [Compound 737]: 34 nM. Regarding `Cc1ccnc(Nc2ncccc2-c2nc(C(N)=O)c(N)c(-c3c(C)ccc4[nH]ncc34)n2)c1C` [Compound 738], the IC50 came to 383 nM.

Take `Cc1ccc2[nH]ncc2c1-c1nc(-c2ccc(C#N)cc2Nc2ncccc2F)nc(C(N)=O)c1N` [Compound 739]: the half-inhibitory concentration (IC50) amounted to 9 nM. On the same count and under the same terms, next, `Cc1ccc(C#N)nc1Nc1ncccc1-c1nc(C(N)=O)c(N)c(-c2c(C)ccc3[nH]ncc23)n1` [Compound 740]: 7 nM; `Cc1ccc2[nH]ncc2c1-c1nc(-c2cccnc2Nc2ncccc2CC#N)nc(C(N)=O)c1N` [Compound 741]: 155 nM. Same read-out and setting: as for `Cc1ccc(Cl)nc1Nc1ncccc1-c1nc(C(N)=O)c(N)c(-c2c(C)ccc3[nH]ncc23)n1` [Compound 742], the figure is 5 nM; as for `Cc1ccc2[nH]ncc2c1-c1nc(-c2cccnc2Nc2nc(C#N)ccc2Cl)nc(C(N)=O)c1N` [Compound 743], 3 nM.

For `Cc1cnc(Cl)c(Nc2ncccc2-c2nc(C(N)=O)c(N)c(-c3c(C)ccc4[nH]ncc34)n2)n1` [Compound 744], the IC50 was determined as 8 nM. With `Cc1ccc2[nH]ncc2c1-c1nc(-c2ccc(C#N)nc2Nc2ncccn2)nc(C(N)=O)c1N` [Compound 745], the half-maximal inhibitory concentration (IC50) was 140 nM. As to `Cc1ccc2[nH]ncc2c1-c1nc(-c2ccc(C#N)nc2Nc2ncccc2F)nc(C(N)=O)c1N` [Compound 746], the IC50 was found to be 11 nM. On the same count and under the same terms, as for `Cc1ccc2[nH]ncc2c1-c1nc(-c2cc(F)cnc2NCC(F)(F)F)nc(C(N)=O)c1N` [Compound 747], the figure is 87 nM. Regarding `Cc1ccc2[nH]ncc2c1-c1nc(-c2cc(F)cnc2N[C@H]2C[C@](C)(O)C2)nc(C(N)=O)c1N` [Compound 748], the IC50 came to 40 nM.

As to `Cc1ccc(F)c(Nc2ncccc2-c2nc(C(N)=O)c(N)c(-c3c(C)c(F)cc4[nH]ncc34)n2)n1` [Compound 749], the IC50 was found to be 6 nM. The same measure, in the same setting: next, `Cc1cnc(C)c(Nc2cc(C#N)ccc2-c2nc(C(N)=O)c(N)c(-c3c(C)ccc4[nH]ncc34)n2)n1` [Compound 750]: 73 nM. Still for that read-out and setting: next, `Cc1ccc2[nH]ncc2c1-c1nc(-c2ccc(C#N)cc2Nc2nccnc2C)nc(C(N)=O)c1N` [Compound 751]: 14 nM; `Cc1ccc2[nH]ncc2c1-c1nc(-c2cccnc2Nc2nc(F)ccc2Cl)nc(C(N)=O)c1N` [Compound 752]: 2 nM.

As to `Cc1ccc2[nH]ncc2c1-c1nc(-c2cccnc2Nc2cncc(F)n2)nc(C(N)=O)c1N` [Compound 753], the IC50 was 59 nM. The same measure, in the same setting: next, `Cc1cccnc1Nc1cc(C#N)ccc1-c1nc(C(N)=O)c(N)c(-c2c(C)ccc3[nH]ncc23)n1` [Compound 754]: 17 nM; `Cc1ccc2[nH]ncc2c1-c1nc(-c2cc(F)c(C#N)cc2NC(C)C(F)(F)F)nc(C(N)=O)c1N` (centres unmarked) [Compound 755]: 103 nM. Still for that read-out and setting: next, `Cc1ccc2[nH]ncc2c1-c1nc(-c2cc(F)cnc2N[C@H]2CC[C@H](C(C)(C)O)CC2)nc(C(N)=O)c1N` [Compound 757]: 199 nM; `Cc1ccc2[nH]ncc2c1-c1nc(-c2ccc(F)nc2Nc2ncccn2)nc(C(N)=O)c1N` [Compound 758]: 83 nM.

`Cc1ccc2[nH]ncc2c1-c1nc(-c2ccc(Cl)nc2Nc2ncccn2)nc(C(N)=O)c1N` [Compound 759]: the concentration for half-maximal inhibition (IC50) was determined as 33 nM. Still for that read-out and setting: next, `Cc1ccc2[nH]ncc2c1-c1nc(-c2ccc(C(F)(F)F)nc2Nc2ncccn2)nc(C(N)=O)c1N` [Compound 760]: 201 nM; `Cc1ccc2[nH]ncc2c1-c1nc(-c2cc(F)c(C#N)cc2Nc2ncccn2)nc(C(N)=O)c1N` [Compound 761]: 75 nM; `Cc1ccc2[nH]ncc2c1-c1nc(-c2cccnc2Nc2nccnc2Cl)nc(C(N)=O)c1N` [Compound 763]: 29 nM. Same read-out and setting: as for `Cc1ccc(-c2nc(C(N)=O)c(N)c(-c3c(C)ccc4[nH]ncc34)n2)c(Nc2ncccn2)n1` [Compound 764], the figure is 25 nM; as for `Cc1ccc2[nH]ncc2c1-c1nc(-c2ccc(C#N)cc2Nc2cccnn2)nc(C(N)=O)c1N` [Compound 765], 23 nM; as for `Cc1ccc2[nH]ncc2c1-c1nc(-c2cccnc2Nc2ncccc2C(F)(F)F)nc(C(N)=O)c1N` [Compound 767], 11 nM. Consider `Cc1ccc2[nH]ncc2c1-c1nc(-c2cccc(F)c2Nc2ncccn2)nc(C(N)=O)c1N` [Compound 769], for which the half-maximal inhibitory concentration (IC50) is 230 nM. Take `Cc1ccc2[nH]ncc2c1-c1nc(-c2ccc(Cl)nc2Nc2nccnc2Cl)nc(C(N)=O)c1N` [Compound 770]: the IC50 was found to be 17 nM.

For the compound `Cc1ccc2[nH]ncc2c1-c1nc(-c2ccc(C(F)(F)F)nc2Nc2nccnc2Cl)nc(C(N)=O)c1N` [Compound 771], the IC50 was found to be 96 nM. The same measure, in the same setting: next, `Cc1ccc2[nH]ncc2c1-c1nc(-c2ccc(Cl)nc2N[C@H]2C[C@@](C)(O)C2)nc(C(N)=O)c1N` [Compound 772]: 113 nM; `Cc1ccc(F)c(Nc2ncccc2-c2nc(C(N)=O)c(N)c(-c3c(C)cc(F)c4[nH]ncc34)n2)n1` [Compound 773]: 6 nM; `Cc1cccc(-c2nc(C(N)=O)c(N)c(-c3c(C)ccc4[nH]ncc34)n2)c1Nc1ncccn1` [Compound 774]: 563 nM. Consider `Cc1ccnc(Nc2c(C)cccc2-c2nc(C(N)=O)c(N)c(-c3c(C)ccc4[nH]ncc34)n2)n1` [Compound 775], for which the IC50 came out at 2600 nM. Same read-out and setting: next, `Cc1ccnc(Nc2c(F)cccc2-c2nc(C(N)=O)c(N)c(-c3c(C)ccc4[nH]ncc34)n2)n1` [Compound 776, 5-amino-2-(3-fluoro-2-((4-methylpyrimidin-2-yl)amino)phenyl)-6-(5-methyl-1H-indazol-4-yl)pyrimidine-4-carboxamide]: 1130 nM; `COc1ccccc1-c1nc(C(N)=O)c(N)c(-c2c(C)ccc3[nH]ncc23)n1` [Compound 777]: greater than 10000 nM; `CCc1ccccc1-c1nc(C(N)=O)c(N)c(-c2c(C)ccc3[nH]ncc23)n1` [Compound 778]: 1260 nM. On the same count and under the same terms, next, `Cc1ccc2[nH]ncc2c1-c1nc(-c2ccccc2CO)nc(C(N)=O)c1N` [Compound 779]: 494 nM. On the same count and under the same terms, next, `Cc1ccc2[nH]ncc2c1-c1nc(-c2ccc(Cl)nc2Nc2nccnc2C)nc(C(N)=O)c1N` [Compound 780]: 25 nM.

On to `Cc1ccc2[nH]ncc2c1-c1nc(-c2ccc(Cl)nc2Nc2ncccc2F)nc(C(N)=O)c1N` [Compound 781], for which the IC50 stood at 5 nM. The same measure, in the same setting: as for `Cc1ccc2[nH]ncc2c1-c1nc(-c2ccc(C#N)cc2NC2CCOCC2)nc(C(N)=O)c1N` [Compound 782], the figure is 25 nM; as for `Cc1ccc2[nH]ncc2c1-c1nc(-c2cccnc2N[C@@H]2CC[C@H](O)C2)nc(C(N)=O)c1N` [Compound 783], 35 nM. Turning to `Cc1ccc2[nH]ncc2c1-c1nc(-c2cccnc2N[C@H]2CC[C@@H](O)C2)nc(C(N)=O)c1N` [Compound 784], the half-inhibitory concentration (IC50) stood at 44 nM.

Turning to `Cc1ccc2[nH]ncc2c1-c1nc(-c2cccnc2N[C@H]2CC[C@H](O)C2)nc(C(N)=O)c1N` [Compound 785], the IC50 was found to be 22 nM. Still for that read-out and setting: next, `Cc1ccc2[nH]ncc2c1-c1nc(-c2cccnc2N[C@@H]2CC[C@@H](O)C2)nc(C(N)=O)c1N` [Compound 786]: 9 nM; `Cc1ccc2[nH]ncc2c1-c1nc(-c2cc(C#N)ccc2Nc2ncccn2)nc(C(N)=O)c1N` [Compound 789]: 43 nM.

On to `C[C@]1(O)C[C@@H](Nc2nc(Cl)ccc2-c2nc(C(N)=O)c(N)c(-c3c(Cl)ccc4[nH]ncc34)n2)C1` [Compound 790], for which the 50% inhibitory concentration (IC50) stood at 271 nM. Turning to `Cc1ccc2[nH]ncc2c1-c1nc(-c2ccc(F)nc2N[C@H]2C[C@@](C)(O)C2)nc(C(N)=O)c1N` [Compound 791], the IC50 came out at 61 nM.

The same test, now with this note: 2 h, 2 hours with compound, read-out: FUOV-1 CDK1 pThr14 IC50.
On to `Cc1ccc2[nH]ncc2c1-c1nc(-c2cc(F)cnc2N[C@H]2CC[C@@H](O)C2)nc(C(N)=O)c1N` [Compound 797], for which the IC50 was found to be 48 nM. On the same count and under the same terms, next, `Cc1ccc(F)c(Nc2ncccc2-c2nc(C(N)=O)c(N)c(-c3c(Cl)ccc4[nH]ncc34)n2)n1` [Compound 798]: 5 nM.

The same test, now with this note: 2 h compound incubation, read-out: FUOV-1 CDK1 pThr14 IC50.
On to `Cc1ccc2[nH]ncc2c1-c1nc(-c2cccnc2Nc2cccnc2)nc(C(N)=O)c1N` [Compound 768], for which the half-maximal inhibitory concentration (IC50) was 122 nM.
